Laboratory results from US20200261421A1, “HETEROCYCLIC COMPOUNDS AS HIV PROTEASE INHIBITORS” (Merck Sharp & Dohme Corp., priority 2016, published 2020).
pIC50: −log10 of the molar value.

Target: T1, wild-type HIV-1 protease (Human immunodeficiency virus type 1 group M subtype B, UniProt P04585)
T1 construct: Escherichia coli expressed wild-type HIV-1 protease protein; made in house; host or cells: Escherichia coli
Assay: Assay for Inhibition of Microbial Expressed HIV Protease
Format: biochemical
Conditions: Escherichia coli expressed wild-type HIV-1 protease, peptide substrate cleavage; mean of at least two independent experiments
Summary of the method: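 E. coli-expressed wild-type HIV-1 protease (20 pM) was preincubated with inhibitor for 30 min at room temperature in 50 mM sodium acetate pH 5.5, 100 mM NaCl, 0.1% BSA. It was then reacted with 400 μM peptide substrate for 1 h at 30 °C. Cleavage product was quantified by LC-MS/MS, and IC50 is the mean of at least two experiments.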

Structure (SMILES)	pIC50
CC(C)CC1(c2ccccc2)NC(=N)N(Cc2ccc(Cl)c(C(=O)NCc3cnccn3)c2)C1=O (stereo not drawn) [Example 75, 2-chloro-5-{[2-imino-4-(2-methylpropyl)-5-oxo-4-phenylimidazolidin-1-yl]methyl}-N-(pyrazin-2-ylmethyl)benzamide]	7.50
CC(C)CC1(c2ccccc2)NC(=N)N(Cc2ccc(Cl)c(C(=O)N[C@H](C)c3ccc(F)cc3)c2)C1=O (stereo partly drawn) [Example 76, 2-chloro-N-[(1R)-1-(4-fluorophenyl)ethyl]-5-{[2-imino-4-(2-methylpropyl)-5-oxo-4-phenylimidazolidin-1-yl]methyl}benzamide]	7.40
COc1ccc(CN2C(=N)NC(c3ccccc3)(c3ccccc3)C2=O)cc1C(=O)N(C)[C@H](C)c1ccccc1 [Example 77, 5-[(2-imino-5-oxo-4,4-diphenylimidazolidin-1-yl)methyl]-2-methoxy-N-methyl-N-[(1R)-1-phenylethyl]benzamide]	7.36
COc1ccc(CN2C(=N)NC(c3ccccc3)(c3ccccc3)C2=O)cc1C(=O)N(C)Cc1ccc(F)cc1 [Example 78, N-(4-fluorobenzyl)-5-[(2-imino-5-oxo-4,4-diphenylimidazolidin-1-yl)methyl]-2-methoxy-N-methylbenzamide]	7.27
C[C@H](c1ccc(F)cc1)N(C)C(=O)c1cncc(CN2C(=N)NC(c3ccc(F)cc3)(c3ccc(F)cc3)C2=O)c1 [Example 79, 5-{[4,4-bis(4-fluorophenyl)-2-imino-5-oxoimidazolidin-1-yl]methyl}-N-[(1R)-1-(4-fluorophenyl)ethyl]-N-methylpyridine-3-carboxamide]	7.86
CN(Cc1ccc(F)cc1)C(=O)c1cncc(CN2C(=N)NC(c3ccc(F)cc3)(c3ccc(F)cc3)C2=O)c1 [Example 80, 5-{[4,4-bis(4-fluorophenyl)-2-imino-5-oxoimidazolidin-1-yl]methyl}-N-(4-fluorobenzyl)-N-methylpyridine-3-carboxamide]	7.81
CN(Cc1ccc(Cl)cc1)C(=O)c1cncc(CN2C(=N)NC(c3ccc(F)cc3)(c3ccc(F)cc3)C2=O)c1 [Example 81, 5-{[4,4-bis(4-fluorophenyl)-2-imino-5-oxoimidazolidin-1-yl]methyl}-N-(4-chlorobenzyl)-N-methylpyridine-3-carboxamide]	7.64
CN(Cc1ccc(Cl)cn1)C(=O)c1cncc(CN2C(=N)NC(c3ccc(F)cc3)(c3ccc(F)cc3)C2=O)c1 [Example 82, 5-{[4,4-bis(4-fluorophenyl)-2-imino-5-oxoimidazolidin-1-yl]methyl}-N-[(5-chloropyridin-2-yl)methyl]-N-methylpyridine-3-carboxamide]	7.36
CC(C)CCC1(c2ccccc2)NC(=N)N(Cc2cncc(C(=O)N(C)Cc3ccc(C#N)cc3)c2)C1=O (stereo not drawn) [Example 83, N-(4-cyanobenzyl)-5-{[2-imino-4-(3-methylbutyl)-5-oxo-4-phenylimidazolidin-1-yl]methyl}-N-methylpyridine-3-carboxamide]	7.30
CC(C)CC1(c2ccccc2)NC(=N)N(Cc2cncc(C(=O)N(C)Cc3ccc(C#N)cc3)c2)C1=O (stereo not drawn) [Example 84, N-(4-cyanobenzyl)-5-{[2-imino-4-(2-methylpropyl)-5-oxo-4-phenylimidazolidin-1-yl]methyl}-N-methylpyridine-3-carboxamide]	7.03
CN(Cc1ccc(C#N)cc1)C(=O)c1ccnc(CN2C(=N)NC(c3ccccc3)(c3ccccc3)C2=O)c1 [Example 85, N-(4-cyanobenzyl)-2-[(2-imino-5-oxo-4,4-diphenylimidazolidin-1-yl)methyl]-N-methylpyridine-4-carboxamide]	8.27
CN(Cc1ccc(Cl)cc1)C(=O)c1ccnc(CN2C(=N)NC(c3ccccc3)(c3ccccc3)C2=O)c1 [Example 86, N-(4-chlorobenzyl)-2-[(2-imino-5-oxo-4,4-diphenylimidazolidin-1-yl)methyl]-N-methylpyridine-4-carboxamide]	8.11
CC(C)CC1(c2ccccc2)NC(=N)N(Cc2cc(C(=O)N(C)Cc3ccc(C#N)cc3)ccn2)C1=O (stereo not drawn) [Example 87, N-(4-cyanobenzyl)-2-{[2-imino-4-(2-methylpropyl)-5-oxo-4-phenylimidazolidin-1-yl]methyl}-N-methylpyridine-4-carboxamide]	7.81
CC(C)CCC1(c2ccccc2)NC(=N)N(Cc2cc(C(=O)N(C)Cc3ccc(C#N)cc3)ccn2)C1=O (stereo not drawn) [Example 88, N-(4-cyanobenzyl)-2-{[2-imino-4-(3-methylbutyl)-5-oxo-4-phenylimidazolidin-1-yl]methyl}-N-methylpyridine-4-carboxamide]	7.77
CN(Cc1ccc(Cl)cc1)C(=O)c1ccnc(CN2C(=N)NC(c3ccc(F)cc3)(c3ccc(F)cc3)C2=O)c1 [Example 89, 2-{[4,4-bis(4-fluorophenyl)-2-imino-5-oxoimidazolidin-1-yl]methyl}-N-(4-chlorobenzyl)-N-methylpyridine-4-carboxamide]	7.72
CN(Cc1ccc(F)cc1)C(=O)c1ccnc(CN2C(=N)NC(c3ccccc3)(c3ccccc3)C2=O)c1 [Example 90, N-(4-fluorobenzyl)-2-[(2-imino-5-oxo-4,4-diphenylimidazolidin-1-yl)methyl]-N-methylpyridine-4-carboxamide]	7.61
CC(C)CC1(c2ccccc2)NC(=N)N(Cc2cc(C(=O)N(C)Cc3ccc(Cl)cc3)ccn2)C1=O (stereo not drawn) [Example 91, N-(4-chlorobenzyl)-2-{[2-imino-4-(2-methylpropyl)-5-oxo-4-phenylimidazolidin-1-yl]methyl}-N-methylpyridine-4-carboxamide]	7.47
CN(Cc1ccccc1S(C)(=O)=O)C(=O)c1ccnc(CN2C(=N)NC(c3ccccc3)(c3ccccc3)C2=O)c1 [Example 92, 2-[(2-imino-5-oxo-4,4-diphenylimidazolidin-1-yl)methyl]-N-methyl-N-[2-(methylsulfonyl)benzyl]pyridine-4-carboxamide]	7.28
Cc1cc(CN2C(=N)NC(c3ccc(F)cc3)(c3ccc(F)cc3)C2=O)cc(C(=O)N(C)Cc2ccc(F)cc2)n1 [Example 93, 4-{[4,4-bis(4-fluorophenyl)-2-imino-5-oxoimidazolidin-1-yl]methyl}-N-(4-fluorobenzyl)-N,6-dimethylpyridine-2-carboxamide]	7.49
CN(Cc1ccc(F)cc1)C(=O)c1csc(CN2C(=N)NC(c3ccccc3)(c3ccccc3)C2=O)c1 [Example 94, N-(4-fluorobenzyl)-5-[(2-imino-5-oxo-4,4-diphenylimidazolidin-1-yl)methyl]-N-methylthiophene-3-carboxamide]	8.05
CN(Cc1ccc(F)cc1)C(=O)c1csc(CN2C(=N)NC(c3ccccc3)(c3ccccc3)C2=O)n1 [Example 95, N-(4-fluorobenzyl)-2-[(2-imino-5-oxo-4,4-diphenylimidazolidin-1-yl)methyl]-N-methyl-1,3-thiazole-4-carboxamide]	7.52
